Toxic doses and inconclusive results are not listed.
Tested on: CD2F1 mice, L1210 leukemia ip, survival T/C
Experiment: NCI In Vivo Anticancer Drug Screen. Data for tumor model L1210 Leukemia (intraperitoneal) in CD2F1 (CDF1) mice
Conditions: higher = longer survival
Summary of the method: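 Implant tumor; dose compound or vehicle; measure endpoint in both groups; report treated divided by control.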

[1] = endpoint: mean survival time, dose: 100.0 mg/kg/injection, schedule: Q04DX003 (ip), vehicle: saline with Tween-80
[2] = endpoint: mean survival time, dose: 200.0 mg/kg/injection, schedule: Q04DX003 (ip), vehicle: saline with Tween-80
[3] = endpoint: mean survival time, dose: 50.0 mg/kg/injection, schedule: Q01DX009 (ip), vehicle: saline with Tween-80
[4] = endpoint: mean survival time, dose: 100.0 mg/kg/injection, schedule: Q01DX009 (ip), vehicle: saline with Tween-80
[5] = endpoint: mean survival time, dose: 200.0 mg/kg/injection, schedule: Q01DX009 (ip), vehicle: saline with Tween-80
[6] = endpoint: mean survival time, dose: 100.0 mg/kg/injection, schedule: Q01DX001 (ip), vehicle: saline
[7] = endpoint: mean survival time, dose: 200.0 mg/kg/injection, schedule: Q01DX001 (ip), vehicle: saline
[8] = endpoint: mean survival time, dose: 400.0 mg/kg/injection, schedule: Q01DX009 (ip), vehicle: saline with Tween-80

With `CC(C)(C)OC(=O)NCC(=O)ON1C(=O)CCC1=O` the T/C [1] was 96 % of control and the T/C [2] was 87 % of control.

With `CN(C)C(=S)Oc1ccc(S(=O)(=O)F)cc1F` the T/C (endpoint: mean survival time, dose: 100.0 mg/kg/injection, schedule: Q04DX002 (ip), vehicle: saline with Tween-80) was 93 % of control, the T/C (endpoint: mean survival time, dose: 200.0 mg/kg/injection, schedule: Q04DX002 (ip), vehicle: saline with Tween-80) was 93 % of control and the T/C (endpoint: mean survival time, dose: 400.0 mg/kg/injection, schedule: Q04DX002 (ip), vehicle: saline with Tween-80) was 104 % of control.

`CCOc1ccc(C(C)c2cc3c(cc2OC)OCO3)cc1` (stereo unspecified) was tested, and the T/C (endpoint: median survival time, dose: 25.0 mg/kg/injection, schedule: Q01DX009 (ip), vehicle: distilled water + Tween-80) was 104 % of control, the T/C (endpoint: median survival time, dose: 25.0 mg/kg/injection, schedule: Q01DX009 (ip), vehicle: saline with Tween-80) was 117 % of control and the T/C (endpoint: median survival time, dose: 50.0 mg/kg/injection, schedule: Q01DX009 (ip), vehicle: distilled water + Tween-80) was 104 % of control. The T/C (endpoint: median survival time, dose: 50.0 mg/kg/injection, schedule: Q01DX009 (ip), vehicle: saline with Tween-80) was 109 % of control, the T/C (endpoint: median survival time, dose: 100.0 mg/kg/injection, schedule: Q01DX009 (ip), vehicle: distilled water + Tween-80) was 109 % of control and the T/C (endpoint: median survival time, dose: 100.0 mg/kg/injection, schedule: Q01DX009 (ip), vehicle: saline with Tween-80) was 110 % of control. The T/C (endpoint: median survival time, dose: 200.0 mg/kg/injection, schedule: Q01DX009 (ip), vehicle: distilled water + Tween-80) was 124 % of control and the T/C (endpoint: median survival time, dose: 200.0 mg/kg/injection, schedule: Q01DX009 (ip), vehicle: saline with Tween-80) was 150 % of control.

In the case of `COc1ccc(-c2nc3ccc(C)cc3c(=O)o2)cc1`, the T/C [3] is reported as 89 % of control, the T/C [4] is reported as 93 % of control and the T/C [5] is reported as 89 % of control.

With `O=S1(=O)N=C2C3CCN(CC3)C2C(c2ccccc2)N1` (stereo unspecified) the T/C (endpoint: mean survival time, dose: 50.0 mg/kg/injection, schedule: Q01DX001 (ip), vehicle: saline) was 94 % of control, the T/C [6] was 101 % of control and the T/C [7] was 101 % of control.

For `NCCCCC1(CCCCN)OCCO1`, the T/C (endpoint: mean survival time, dose: 25.0 mg/kg/injection, schedule: Q01DX009 (ip), vehicle: saline) was 95 % of control, the T/C (endpoint: mean survival time, dose: 25.0 mg/kg/injection, schedule: Q04DX002 (ip), vehicle: saline) was 102 % of control and the T/C (endpoint: mean survival time, dose: 50.0 mg/kg/injection, schedule: Q01DX009 (ip), vehicle: saline) was 102 % of control. For the same molecule, the T/C (endpoint: mean survival time, dose: 50.0 mg/kg/injection, schedule: Q04DX002 (ip), vehicle: saline) was 95 % of control and the T/C (endpoint: mean survival time, dose: 100.0 mg/kg/injection, schedule: Q01DX001 (ip), vehicle: saline with Tween-80) was 94 % of control.

For `COc1cc2cccnc2c2[nH]cc(C(=O)O)c(=O)c12`, the T/C [6] was 107 % of control, the T/C [4] was 97 % of control and the T/C [7] was 100 % of control. The T/C (endpoint: mean survival time, dose: 400.0 mg/kg/injection, schedule: Q01DX001 (ip), vehicle: saline) was 97 % of control.

With `Cc1cc(C)nc(C)c1.[Cl-].[Cl-].[Cl-].[Cl-].[Pt+2]` the T/C (endpoint: mean survival time, dose: 25.0 mg/kg/injection, schedule: Q04DX003 (ip), vehicle: saline with Tween-80) was 98 % of control, the T/C (endpoint: mean survival time, dose: 50.0 mg/kg/injection, schedule: Q04DX003 (ip), vehicle: saline with Tween-80) was 101 % of control and the T/C [1] was 103 % of control.

`C=CC(C)(C)c1ccccc1` was tested, and the T/C [3] was 93 % of control, the T/C [4] was 96 % of control and the T/C [5] was 98 % of control.

With `N#CCC(=O)NN` the T/C (endpoint: mean survival time, dose: 100.0 mg/kg/injection, schedule: Q04DX003 (ip), vehicle: saline) was 103 % of control and the T/C (endpoint: mean survival time, dose: 200.0 mg/kg/injection, schedule: Q04DX003 (ip), vehicle: saline) was 108 % of control.

In the case of `CN(C)C(Cl)(Cl)Nc1ccc(Cl)cc1`, the T/C [4] is reported as 91 % of control, the T/C [5] is reported as 107 % of control and the T/C [8] is reported as 113 % of control.

`CC(=O)Nc1c(Cl)c(Cl)c2c(c1Cl)Cc1cc(Br)ccc1-2` was tested, and the T/C (endpoint: mean survival time, dose: 25.0 mg/kg/injection, schedule: Q01DX009 (ip), vehicle: Klucel (hydroxypropylcellulose) (HPC)) was 109 % of control.

For `CC(=O)N(O)c1ccc2c(c1)Cc1ccccc1-2`, the T/C [4] was 98 % of control, the T/C [5] was 101 % of control and the T/C [8] was 101 % of control.

For `Cn1c(=O)cc(O)c2ccccc21`, the T/C [1] was 101 % of control, the T/C [2] was 97 % of control and the T/C (endpoint: mean survival time, dose: 400.0 mg/kg/injection, schedule: Q04DX003 (ip), vehicle: saline with Tween-80) was 97 % of control.

From PubChem BioAssay AID256 (DTP/NCI, 2004)
